The record followed here is patent US8853418B2, “Cyclopentylpyrazoles as N-type calcium channel blockers” (Janssen Pharmaceutica NV, priority 2012, dated 2014).

For orientation: IC50 means the midpoint of a concentration-inhibition curve. As usually defined, the inhibition is how much of the control response was suppressed.

This assay has as its target N-type calcium channel (α1B (Cav2.2), β3 and α2δ subunits) (Homo sapiens, UniProt Q00975). Put plainly: Functional Assay: Antagonism of N-Type Calcium Channel (FDSS calcium mobilization, KCl depolarization). The assay is classed as cell-based. The note with it: for IC50: HEK cell line, 50 mM KCl depolarization, six-point concentration-response, read-out: FDSS IC50. The protocol: A stable cell line (HEK parent) co-expressing the α1B (Cav2.2), β3 and α2δ subunits of the N-type calcium channel subunits was used. These cells were routinely grown as monolayers in low glucose-containing Dulbecco's Modified Eagle Medium supplemented with 10% FBS, 2 mM L-glutamine, 100 I.U./mL penicillin, 100 μg/mL streptomycin, 400 μg/mL G418 and 200 μg/mL Zeocin (split ratio=1:5). Cells were maintained in 5% CO2 at 37° C. Compounds of Formula (I) were prepared as 10 mM stocks in DMSO from neat compound, if available. Otherwise, the 5 or 10 mM DMSO stock solutions provided in-house were used.
Calcium mobilization responses to KCl depolarization were evaluated by measuring the intensity of calcium-mediated fluorescent signal in the presence of BD Calcium Assay Dye (BD Biosciences, Franklin Lakes, N.J., U.S.A.), utilizing a Functional Drug Screening System (FDSS) by Hamamatsu Corporation (Bridgewater, N.J. U.S.A.).
Twenty-four hr prior to assay, cells were seeded in clear-base poly-D-lysine-coated 384-well plates (BD Biosciences) at a density of 5,000 cells per well in culture medium and grown overnight in 5% CO2 at 37° C. On the day of assay, growth media were removed, and cells were loaded with BD calcium assay dye (BD Biosciences) for 35 min at 37° C. under 5% CO2 and then for 25 min at room temp. Utilizing the FDSS, cells were exposed to representative compounds of Formula (I) at varying concentrations, and intracellular calcium was measured for 5 min prior to the addition of 50 mM KCl for an additional 3 min of measurement.
Calculations and Formulas
IC50 values for representative compounds of Formula (I) were determined from six-point concentration-response experiments and represent the concentration of said compound required to inhibit 50% of the maximal response. Maximal fluorescence intensity (FI) achieved upon addition of 50 mM KCl was exported from the FDSS software and further analyzed using GraphPad Prism 3.02 (Graph Pad Software Inc., San Diego, Calif., U.S.A.). Data were normalized to the maximum average counts from quadruplicate wells for each condition in the presence of 50 mM KCl and to the minimum average counts in the presence of buffer. Theoretical curves were generated using nonlinear regression curve-fitting analysis of either sigmoidal concentration-response or sigmoidal concentration-response (variable slope), and the IC50 values with the best-fit curve determined by GraphPad Prism were reported.
(Calcium assays in cells follow changes in intracellular calcium, usually with a dye or a luminescent sensor.)

Chain of N-type calcium channel (α1B (Cav2.2), β3 and α2δ subunits) (Q00975 whole entry): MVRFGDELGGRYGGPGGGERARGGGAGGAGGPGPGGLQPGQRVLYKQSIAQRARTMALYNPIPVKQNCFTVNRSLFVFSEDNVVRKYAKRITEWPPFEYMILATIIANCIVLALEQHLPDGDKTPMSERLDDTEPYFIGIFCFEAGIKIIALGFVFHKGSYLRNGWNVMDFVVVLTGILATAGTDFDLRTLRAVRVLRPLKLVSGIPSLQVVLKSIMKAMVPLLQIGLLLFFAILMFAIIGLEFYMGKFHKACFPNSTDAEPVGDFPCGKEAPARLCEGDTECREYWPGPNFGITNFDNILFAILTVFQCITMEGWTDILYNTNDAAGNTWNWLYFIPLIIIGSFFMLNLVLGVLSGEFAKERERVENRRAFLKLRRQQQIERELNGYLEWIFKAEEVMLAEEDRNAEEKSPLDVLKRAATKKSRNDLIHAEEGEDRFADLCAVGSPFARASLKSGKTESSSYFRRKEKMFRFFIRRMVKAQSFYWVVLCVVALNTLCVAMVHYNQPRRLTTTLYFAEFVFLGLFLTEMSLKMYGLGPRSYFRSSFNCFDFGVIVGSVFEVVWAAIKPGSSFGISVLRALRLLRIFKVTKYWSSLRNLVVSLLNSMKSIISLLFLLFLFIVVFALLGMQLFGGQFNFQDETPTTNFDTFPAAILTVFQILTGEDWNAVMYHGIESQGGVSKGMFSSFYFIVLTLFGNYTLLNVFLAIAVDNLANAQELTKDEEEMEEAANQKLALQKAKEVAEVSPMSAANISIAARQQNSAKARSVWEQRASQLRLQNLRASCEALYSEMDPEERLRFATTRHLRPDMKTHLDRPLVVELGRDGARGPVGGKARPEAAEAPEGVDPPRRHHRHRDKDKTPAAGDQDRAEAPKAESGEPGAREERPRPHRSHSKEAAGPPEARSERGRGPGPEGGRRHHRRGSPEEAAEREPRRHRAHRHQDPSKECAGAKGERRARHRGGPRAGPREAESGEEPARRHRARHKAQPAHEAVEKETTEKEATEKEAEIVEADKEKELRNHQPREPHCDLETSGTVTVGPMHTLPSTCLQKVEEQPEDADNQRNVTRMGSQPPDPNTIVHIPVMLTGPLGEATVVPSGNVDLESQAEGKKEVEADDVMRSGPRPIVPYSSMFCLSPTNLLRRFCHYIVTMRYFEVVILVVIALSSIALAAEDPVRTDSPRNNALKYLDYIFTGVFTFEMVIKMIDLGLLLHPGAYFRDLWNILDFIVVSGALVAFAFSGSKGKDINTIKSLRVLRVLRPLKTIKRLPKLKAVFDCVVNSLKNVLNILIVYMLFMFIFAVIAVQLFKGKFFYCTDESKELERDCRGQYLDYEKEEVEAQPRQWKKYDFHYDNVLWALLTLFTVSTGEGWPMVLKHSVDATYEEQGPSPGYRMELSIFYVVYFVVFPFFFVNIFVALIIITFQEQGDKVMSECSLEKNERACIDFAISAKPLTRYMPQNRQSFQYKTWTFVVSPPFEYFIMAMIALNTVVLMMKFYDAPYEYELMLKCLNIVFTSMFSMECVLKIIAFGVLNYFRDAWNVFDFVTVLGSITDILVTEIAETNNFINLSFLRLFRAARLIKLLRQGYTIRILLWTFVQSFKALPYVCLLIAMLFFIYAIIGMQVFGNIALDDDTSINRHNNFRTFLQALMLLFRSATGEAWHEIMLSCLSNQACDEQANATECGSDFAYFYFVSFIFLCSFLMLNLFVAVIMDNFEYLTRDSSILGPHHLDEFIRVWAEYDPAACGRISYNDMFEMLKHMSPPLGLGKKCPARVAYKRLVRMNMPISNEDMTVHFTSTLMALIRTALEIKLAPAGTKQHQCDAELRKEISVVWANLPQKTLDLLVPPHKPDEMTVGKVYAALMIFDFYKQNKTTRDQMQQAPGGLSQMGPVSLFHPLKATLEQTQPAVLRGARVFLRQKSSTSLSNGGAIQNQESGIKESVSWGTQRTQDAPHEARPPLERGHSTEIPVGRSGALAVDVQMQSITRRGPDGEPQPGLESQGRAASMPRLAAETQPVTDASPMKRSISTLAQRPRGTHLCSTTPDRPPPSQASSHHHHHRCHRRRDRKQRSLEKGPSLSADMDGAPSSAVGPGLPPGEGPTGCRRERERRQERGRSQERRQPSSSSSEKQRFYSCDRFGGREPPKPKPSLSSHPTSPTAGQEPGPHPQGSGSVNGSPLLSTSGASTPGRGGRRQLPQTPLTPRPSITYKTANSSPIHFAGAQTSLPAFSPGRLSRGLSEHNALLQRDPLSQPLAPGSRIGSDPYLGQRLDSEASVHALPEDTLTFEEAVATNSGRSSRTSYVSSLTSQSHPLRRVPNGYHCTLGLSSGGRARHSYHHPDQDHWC
Chain of N-type calcium channel (α1B (Cav2.2), β3 and α2δ subunits) (P54284 whole entry partner): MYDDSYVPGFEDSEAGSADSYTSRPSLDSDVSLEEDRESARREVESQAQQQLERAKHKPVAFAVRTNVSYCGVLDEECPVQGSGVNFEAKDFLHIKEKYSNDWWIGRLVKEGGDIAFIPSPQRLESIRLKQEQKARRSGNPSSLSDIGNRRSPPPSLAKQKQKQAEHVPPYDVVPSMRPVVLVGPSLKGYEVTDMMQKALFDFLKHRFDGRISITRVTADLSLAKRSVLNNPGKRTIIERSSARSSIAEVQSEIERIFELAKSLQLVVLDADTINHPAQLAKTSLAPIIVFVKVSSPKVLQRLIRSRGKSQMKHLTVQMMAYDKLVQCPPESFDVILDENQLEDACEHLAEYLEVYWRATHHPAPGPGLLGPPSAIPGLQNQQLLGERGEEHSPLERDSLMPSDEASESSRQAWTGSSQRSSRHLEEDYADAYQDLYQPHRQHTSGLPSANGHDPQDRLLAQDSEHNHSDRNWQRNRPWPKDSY
Chain of N-type calcium channel (α1B (Cav2.2), β3 and α2δ subunits) (P54289 25-946 partner limits assumed): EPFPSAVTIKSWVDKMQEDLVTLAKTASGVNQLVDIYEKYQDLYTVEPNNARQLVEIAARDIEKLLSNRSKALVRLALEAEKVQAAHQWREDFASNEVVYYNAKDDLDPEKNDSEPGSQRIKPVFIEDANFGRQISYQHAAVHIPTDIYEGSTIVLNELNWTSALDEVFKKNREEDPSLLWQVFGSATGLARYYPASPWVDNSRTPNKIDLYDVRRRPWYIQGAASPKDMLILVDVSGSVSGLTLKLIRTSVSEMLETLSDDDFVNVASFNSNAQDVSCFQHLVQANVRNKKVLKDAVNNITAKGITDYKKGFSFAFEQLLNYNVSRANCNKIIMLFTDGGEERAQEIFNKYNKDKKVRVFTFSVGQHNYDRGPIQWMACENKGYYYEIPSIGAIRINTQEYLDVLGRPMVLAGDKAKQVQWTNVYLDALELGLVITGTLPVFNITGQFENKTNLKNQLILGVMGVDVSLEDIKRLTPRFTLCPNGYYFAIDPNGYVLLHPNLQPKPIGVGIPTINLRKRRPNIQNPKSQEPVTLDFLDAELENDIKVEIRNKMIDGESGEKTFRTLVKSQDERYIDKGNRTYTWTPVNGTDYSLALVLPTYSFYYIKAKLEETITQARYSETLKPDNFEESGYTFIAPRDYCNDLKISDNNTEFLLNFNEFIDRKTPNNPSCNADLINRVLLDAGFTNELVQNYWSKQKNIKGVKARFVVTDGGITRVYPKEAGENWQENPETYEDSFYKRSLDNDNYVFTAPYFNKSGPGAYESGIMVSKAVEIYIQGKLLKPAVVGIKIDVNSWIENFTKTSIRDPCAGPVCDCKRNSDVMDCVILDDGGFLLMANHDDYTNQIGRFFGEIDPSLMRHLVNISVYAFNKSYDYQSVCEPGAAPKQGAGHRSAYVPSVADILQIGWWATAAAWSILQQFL
Chain of N-type calcium channel (α1B (Cav2.2), β3 and α2δ subunits) (P54289 947-1103 partner limits assumed): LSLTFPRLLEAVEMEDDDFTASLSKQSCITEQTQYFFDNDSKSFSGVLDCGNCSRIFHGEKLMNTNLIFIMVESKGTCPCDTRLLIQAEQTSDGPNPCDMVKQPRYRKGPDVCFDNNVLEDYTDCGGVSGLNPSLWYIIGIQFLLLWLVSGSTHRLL

`COc1ccccc1-n1nc2c(c1-c1ccc(Cl)cc1)CC(=O)C2` [Compound 35, 3-(4-chlorophenyl)-2-(2-methoxyphenyl)-2,6-dihydrocyclopenta[c]pyrazol-5(4H)-one]: the IC50 was found to be 59 nM.

For `C=CCC1Cc2nn(-c3ccccc3OC)c(-c3ccc(Cl)cc3)c2C1` (stereo not shown) [Compound 4, 3-(4-chlorophenyl)-2-(2-methoxyphenyl)-5-prop-2-en-1-yl-2,4,5,6-tetrahydrocyclopenta[c]pyrazole], the inhibition at 1 µM was 81%.

In the case of `COc1ccccc1-n1nc2c(c1-c1ccc(Cl)cc1)C[C@@H](OC)C2` [Compound 49, (5R)-3-(4-chlorophenyl)-5-methoxy-2-(2-methoxyphenyl)-2,4,5,6-tetrahydrocyclopenta[c]pyrazole], the inhibition at 0.33 µM was 76% and the IC50 worked out at 52 nM.

As to `COc1ccccc1-n1nc2c(c1-c1ccc(C)nc1)CC1(C2)OCC(C)(C)CO1` [Compound 95, 2-(2-methoxyphenyl)-5′,5′-dimethyl-3-(6-methylpyridin-3-yl)-2,6-dihydro-4H-spiro[cyclopenta[c]pyrazole-5,2′-[1,3]dioxane]], the inhibition at 0.33 µM is 67% and the concentration for half-maximal inhibition (IC50) turned out to be 110 nM.

Regarding `CCC1(CC)CCN(C2Cc3nn(-c4ccccc4OC)c(-c4ccc(Cl)cc4)c3C2)C1` (stereo not shown) [Compound 118, 3-(4-chlorophenyl)-5-(3,3-diethylpyrrolidin-1-yl)-2-(2-methoxyphenyl)-2,4,5,6-tetrahydrocyclopenta[c]pyrazole], the inhibition at 0.33 µM was 76% and the IC50 was determined as 46 nM.

On to `CN(C)C(=O)OC1Cc2nn(-c3ccccc3OC(F)(F)F)c(-c3ccc(Cl)cc3)c2C1` (stereo not shown) [Compound 23, 3-(4-chlorophenyl)-2-[2-(trifluoromethoxy)phenyl]-2,4,5,6-tetrahydrocyclopenta[c]pyrazol-5-yl dimethylcarbamate], for which the 50% inhibitory concentration (IC50) was determined as 140 nM.

Consider `CN(C)C(=O)NCCC1Cc2nn(-c3ccccc3C(F)(F)F)c(-c3ccc(Cl)cc3)c2C1` (stereo not shown) [Compound 22, 3-(2-{3-(4-chlorophenyl)-2-[2-(trifluoromethyl)phenyl]-2,4,5,6-tetrahydrocyclopenta[c]pyrazol-5-yl}ethyl)-1,1-dimethylurea], for which the IC50 was found to be 220 nM.

Consider `CCc1nnn([C@@H]2Cc3nn(-c4ccccc4OC)c(-c4ccc(C#N)cc4)c3C2)c1CC` [Compound 136, 4-[(5S)-5-(4,5-diethyl-1H-1,2,3-triazol-1-yl)-2-(2-methoxyphenyl)-2,4,5,6-tetrahydrocyclopenta[c]pyrazol-3-yl]benzonitrile], for which the inhibition at 0.33 µM turned out to be 89% and the IC50 was 16 nM.

As to `COc1ccccc1-n1nc2c(c1-c1ccc(Cl)cc1)C[C@H](OCC1CCOCC1)C2` [Compound 87, (5S)-3-(4-chlorophenyl)-2-(2-methoxyphenyl)-5-(tetrahydro-2H-pyran-4-ylmethoxy)-2,4,5,6-tetrahydrocyclopenta[c]pyrazole], the inhibition at 0.33 µM worked out at 82% and the IC50 was found to be 92 nM.

For the compound `COC(=O)c1cn([C@@H]2Cc3nn(-c4ccccc4OC)c(-c4ccc(C#N)cc4)c3C2)nn1` [Compound 125, methyl 1-[(5S)-3-(4-cyanophenyl)-2-(2-methoxyphenyl)-2,4,5,6-tetrahydrocyclopenta[c]pyrazol-5-yl]-1H-1,2,3-triazole-4-carboxylate], the inhibition at 0.33 µM amounted to 70% and the 50% inhibitory concentration (IC50) was 81 nM.

Turning to `COc1ccccc1-n1nc2c(c1-c1ccc(Cl)cc1)CC(c1ccc(OC(C)C)nc1)C2` (stereo not shown) [Compound 60, 3-(4-chlorophenyl)-2-(2-methoxyphenyl)-5-[6-(1-methylethoxy)pyridin-3-yl]-2,4,5,6-tetrahydrocyclopenta[c]pyrazole], the inhibition at 0.33 µM stood at 62% and the IC50 was found to be 280 nM.

On to `COc1ccccc1-n1nc2c(c1-c1ccc(Cl)cc1)CC(N1CCC(C)CC1)C2` (stereo not shown) [Compound 117, 3-(4-chlorophenyl)-2-(2-methoxyphenyl)-5-(4-methylpiperidin-1-yl)-2,4,5,6-tetrahydrocyclopenta[c]pyrazole], for which the inhibition at 0.33 µM was determined as 75% and the half-maximal inhibitory concentration (IC50) stood at 44 nM.

`COc1ccccc1-n1nc2c(c1-c1ccc(Cl)s1)CC1(C2)OC(C)(C)C(C)(C)O1` [Compound 121, 3-(5-chlorothiophen-2-yl)-2-(2-methoxyphenyl)-4′,4′,5′,5′-tetramethyl-2,6-dihydro-4H-spiro[cyclopenta[c]pyrazole-5,2′-[1,3]dioxolane]]: the inhibition at 0.33 µM was 86% and the concentration for half-maximal inhibition (IC50) was found to be 30 nM.

On to `CCOc1ccc(-c2c3c(nn2-c2ccccc2OC)CC2(C3)OCC(C)(C)CO2)cn1` [Compound 94, 3-(6-ethoxypyridin-3-yl)-2-(2-methoxyphenyl)-5′,5′-dimethyl-2,6-dihydro-4H-spiro[cyclopenta[c]pyrazole-5,2′-[1,3]dioxane]], for which the inhibition at 0.33 µM was found to be 81% and the IC50 is 60 nM.

With `COc1ccccc1-n1nc2c(c1-c1ccc(Cl)cc1)CC(O)C2` (stereo not shown) [Compound 26, 3-(4-chlorophenyl)-2-(2-methoxyphenyl)-2,4,5,6-tetrahydrocyclopenta[c]pyrazol-5-ol], the inhibition at 1 µM amounted to 62%.

As for `COc1ccccc1-n1nc2c(c1-c1ccc(C#N)cc1)C[C@H](n1c(C)nc(C)c1C)C2` [Compound 132, 4-[(5S)-2-(2-methoxyphenyl)-5-(2,4,5-trimethyl-1H-imidazol-1-yl)-2,4,5,6-tetrahydrocyclopenta[c]pyrazol-3-yl]benzonitrile], the inhibition at 0.33 µM turned out to be 29%.

With `COCc1cn([C@@H]2Cc3nn(-c4ccccc4OC)c(-c4ccc(C#N)cc4)c3C2)nn1` [Compound 129, 4-[(5S)-5-[4-(methoxymethyl)-1H-1,2,3-triazol-1-yl]-2-(2-methoxyphenyl)-2,4,5,6-tetrahydrocyclopenta[c]pyrazol-3-yl]benzonitrile], the inhibition at 0.33 µM stood at 47%.

With `CCC(CC)CO[C@@H]1Cc2nn(-c3ccccc3OC)c(-c3ccc(Cl)cc3)c2C1` [Compound 72, (5S)-3-(4-chlorophenyl)-5-(2-ethylbutoxy)-2-(2-methoxyphenyl)-2,4,5,6-tetrahydrocyclopenta[c]pyrazole], the inhibition at 0.33 µM was 78% and the IC50 was 61 nM.

As to `COc1ccccc1-n1nc2c(c1-c1ccc(Cl)cc1)CC(N1CCC(C)(C)C1)C2` (stereo not shown) [Compound 119, 3-(4-chlorophenyl)-5-(3,3-dimethylpyrrolidin-1-yl)-2-(2-methoxyphenyl)-2,4,5,6-tetrahydrocyclopenta[c]pyrazole], the inhibition at 0.33 µM is 76% and the IC50 was 84 nM.

As for `COc1ccccc1-n1nc2c(c1-c1ccc(Cl)cc1)CC(c1ccc(C)nc1)C2` (stereo not shown) [Compound 73, 3-(4-chlorophenyl)-2-(2-methoxyphenyl)-5-(6-methylpyridin-3-yl)-2,4,5,6-tetrahydrocyclopenta[c]pyrazole], the inhibition at 0.33 µM is 81% and the half-maximal inhibitory concentration (IC50) stood at 86 nM.

`CCc1ccccc1-n1nc2c(c1-c1ccc(Cl)cc1)CC(COC(=O)N(CC)CC)C2` (stereo not shown) [Compound 17, [3-(4-chlorophenyl)-2-(2-ethylphenyl)-2,4,5,6-tetrahydrocyclopenta[c]pyrazol-5-yl]methyl diethylcarbamate]: the IC50 amounted to 180 nM.

For `COc1ccccc1-n1nc2c(c1-c1ccc(Cl)cc1)CC(C1CNc3ccccc3C1)C2` (stereo not shown) [Compound 65, 3-[3-(4-chlorophenyl)-2-(2-methoxyphenyl)-2,4,5,6-tetrahydrocyclopenta[c]pyrazol-5-yl]-1,2,3,4-tetrahydroquinoline], the inhibition at 0.33 µM was determined as 59% and the half-inhibitory concentration (IC50) turned out to be 280 nM.

`COc1cc(Cl)ccc1-n1nc2c(c1-c1ccc(Cl)cc1)CC1(C2)OCCCO1` [Compound 52, 2-(4-Chloro-2-methoxyphenyl)-3-(4-chlorophenyl)-2,6-dihydro-4H-spiro[cyclopenta[c]pyrazole-5,2′-[1,3]dioxane]]: the inhibition at 0.33 µM is 64% and the IC50 is 130 nM.

As to `COc1ccccc1-n1nc2c(c1-c1ccc(Cl)cc1)CC(CCO)C2` (stereo not shown) [Compound 1, 2-[3-(4-chlorophenyl)-2-(2-methoxyphenyl)-2,4,5,6-tetrahydrocyclopenta[c]pyrazol-5-yl]ethanol], the IC50 came out at 200 nM.

Take `COc1ccccc1-n1nc2c(c1-c1ccccc1)CC(CNS(C)(=O)=O)C2` (stereo not shown) [Compound 7, N-{[2-(2-methoxyphenyl)-3-phenyl-2,4,5,6-tetrahydrocyclopenta[c]pyrazol-5-yl]methyl}methanesulfonamide]: the inhibition at 0.33 µM stood at 68%.
